Our source for the GI50 and IC50 values is patent US20250188040A1, “PHARMACEUTICAL COMPOSITIONS COMPRISING WRN HELICASE INHIBITORS” (Vividion Therapeutics, Inc., priority 2022, published 2025).

Assay [1] has as its system SW480 cells. In words: Cell growth assay (CellTiter-Glo 2.0), SW480 MSS cell line. As to conditions: read-out: Cell Growth Inhibition GI50 SW480.
Experimental: The effects of compound on cellular viability were determined using the CellTiter-Glo® 2.0 Luminescent Cell Viability Assay (Promega, Madison, WI).
SW480 cells were seeded at 1,000 cells per well in Eagle's Minimum Essential Medium (EMEM) with 10% FBS. Both cell lines were seeded in a volume of 50 μL medium per well. […] The concentration range was adjusted as needed for compounds of different potencies. The cells treated with compounds were incubated for 5 days at 37° C. in 5% CO2. […] The plate was then read on a Clariostar plate reader (BMG Labtech, Cary, NC) in luminescence mode. The previously measured baseline cell viability was subtracted from the luminescence value of each well, and cell viability (% of DMSO) was plotted as a function of log compound concentration. The EC50 was then calculated for each compound using Dotmatics Software (San Diego, CA).
Assay [2] concerns HCT 116 cells. In words: Cell growth assay (CellTiter-Glo 2.0), HCT 116 MSI-H cell line. Conditions: read-out: Cell Growth Inhibition GI50 HCT-116.
Assay [3] deals with hWRN(519-1227)_C-H3CV-GFP-10His (Homo sapiens, UniProt Q14191). In words: Helicase Assay for WRN Inhibition (ATP-dependent, fluorescence based).
Chain of hWRN(519-1227)_C-H3CV-GFP-10His (Q14191 519-1227): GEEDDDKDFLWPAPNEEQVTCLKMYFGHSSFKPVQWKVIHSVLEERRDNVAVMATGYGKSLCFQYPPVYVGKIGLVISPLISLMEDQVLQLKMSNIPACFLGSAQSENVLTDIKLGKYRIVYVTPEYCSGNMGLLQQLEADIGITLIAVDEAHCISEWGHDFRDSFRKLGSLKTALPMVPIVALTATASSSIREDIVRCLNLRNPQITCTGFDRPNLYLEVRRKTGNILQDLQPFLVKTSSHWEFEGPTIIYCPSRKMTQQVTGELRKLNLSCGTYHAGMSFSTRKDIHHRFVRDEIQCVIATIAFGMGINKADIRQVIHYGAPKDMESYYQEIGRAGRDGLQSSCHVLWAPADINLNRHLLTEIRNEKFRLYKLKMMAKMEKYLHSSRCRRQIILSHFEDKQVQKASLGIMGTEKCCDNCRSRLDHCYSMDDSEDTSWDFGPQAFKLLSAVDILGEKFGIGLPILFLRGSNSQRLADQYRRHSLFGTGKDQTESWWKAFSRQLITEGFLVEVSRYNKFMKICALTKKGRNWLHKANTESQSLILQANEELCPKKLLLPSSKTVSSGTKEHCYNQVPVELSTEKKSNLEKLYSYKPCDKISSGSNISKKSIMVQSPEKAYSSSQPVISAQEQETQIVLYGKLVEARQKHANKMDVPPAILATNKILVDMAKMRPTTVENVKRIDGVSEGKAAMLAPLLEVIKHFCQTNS
[4] abbreviates: HCT-116 (MSI-H), 5-day incubation.
The mark [5] stands for this setting: read-out: WRN Helicase IC50, 30 min preincubation with ATP, 30 min reaction.
Where [6] appears, read: WRN Helicase IC50, 30 min preincubation with ATP, 30 min reaction.

Where two headings read alike, the source gives them in different places.

In the case of “2-cyclopropyl-4-(((1R,2R)-2-fluorocyclohexyl)oxy)-N—((S,E)-4-(methylsulfonyl)but-3-en-2-yl)pyrimidine-5-carboxamide; or 2-cyclopropyl-4-(((1S,2S)-2-fluorocyclohexyl)oxy)-N—((S,E)-4-(methylsulfonyl)but-3-en-2-yl)pyrimidine-5-carboxamide [Example 149]”, the 50% growth inhibitory concentration (GI50) in assay [1] (SW480 (MSS), 5-day incubation) was > 10 µM; in assay [2] (setting [4]) it was 2.5 µM. Further, the IC50 in assay [3] (setting [5]) amounted to 7.8 µM.
Turning to `CS(=O)(=O)C=CC1CN(C(=O)c2cnc(C3CC3)nc2Oc2ccccc2)C1` (racemic) [Example 22, (2-cyclopropyl-4-phenoxypyrimidin-5-yl)(3-(2-(methylsulfonyl)vinyl)azetidin-1-yl)methanone], the GI50 came to 6.1 µM in assay [1] (Homo sapiens, SW480, 120 h) and 2.5 µM in assay [2] (Homo sapiens, HCT-116, 120 h). The compound further displayed a 50% inhibitory concentration (IC50) in assay [3] of 3.5 µM.
For `CC1C(=CC#N)CN1C(=O)c1cnc(C2CC2)nc1Oc1ccccc1` (racemic) [Example 265, 2-(1-(2-cyclopropyl-4-phenoxypyrimidine-5-carbonyl)-2-methylazetidin-3-ylidene)acetonitrile] the same measures were > 10 µM, 8.5 µM and 7.2 µM.
For `CC(F)(F)c1ncc(C(=O)NC(C=CS(C)(=O)=O)C2CC(F)(F)C2)c(Oc2ccccc2)n1` (single isomer, unassigned) [192/193], the GI50 was found to be 24 µM in assay [1] (Homo sapiens, SW480, 120 h) and 0.023 µM in assay [2] (Homo sapiens, HCT-116, 120 h).
Turning to `C=C(C#N)[C@@H](NC(=O)c1cnc(C(C)(F)F)nc1Oc1ccccc1)C1CC1` [278/279, (S)—N-(2-cyano-1-cyclopropylallyl)-2-(1,1-difluoroethyl)-4-phenoxypyrimidine-5-carboxamide/(R)—N-(2-cyano-1-cyclopropylallyl)-2-(1,1-difluoroethyl)-4-phenoxypyrimidine-5-carboxamide], the 50% growth inhibitory concentration (GI50) in assay [1] (SW480 (MSS), 5-day incubation) was found to be 11 µM; in assay [2] (setting [4]), 0.35 µM.
With `CN(C)C(=O)C[C@@H](/C=C/S(C)(=O)=O)NC(=O)c1cnc(C(C)(C)C)nc1Oc1ccccc1` [Example 71, (S,E)-2-(tert-butyl)-N-(5-(dimethylamino)-1-(methylsulfonyl)-5-oxopent-1-en-3-yl)-4-phenoxypyrimidine-5-carboxamide], the GI50 in assay [1] (Homo sapiens, SW480, 120 h) came to 41.4 µM; in assay [2] (Homo sapiens, HCT-116, 120 h), 0.11 µM. In assay [3] (setting [6]), this compound returned a half-maximal inhibitory concentration (IC50) of 0.27 µM.
As to `C[C@@H](/C=C/S(C)(=O)=O)NC(=O)c1cnc(C(C)(F)F)nc1Oc1ccccc1` [Example 86, (S,E)-2-(1,1-difluoroethyl)-N-(4-(methylsulfonyl)but-3-en-2-yl)-4-phenoxypyrimidine-5-carboxamide], the 50% growth inhibitory concentration (GI50) was determined as 41.7 µM in assay [1] (Homo sapiens, SW480, 120 h) and 0.224 µM in assay [2] (Homo sapiens, HCT-116, 120 h).
As for `CC(F)(F)c1ncc(C(=O)N[C@H](/C=C/S(C)(=O)=O)CC(F)F)c(Oc2ccccc2)n1` [Example 90, (S,E)-N-(5,5-difluoro-1-(methylsulfonyl)pent-1-en-3-yl)-2-(1,1-difluoroethyl)-4-phenoxypyrimidine-5-carboxamide], the GI50 in assay [1] (Homo sapiens, SW480, 120 h) was 19.2 µM; in assay [2] (Homo sapiens, HCT-116, 120 h), 0.327 µM. In assay [3] (setting [6]), it took 0.69 µM to reach half-maximal inhibition (IC50).
As for `CC(F)(F)c1ncc(C(=O)N[C@H](/C=C/S(C)(=O)=O)C2CCC(F)(F)CC2)c(Oc2ccccc2)n1` [Example 91, (S,E)-N-(1-(4,4-difluorocyclohexyl)-3-(methylsulfonyl)allyl)-2-(1,1-difluoroethyl)-4-phenoxypyrimidine-5-carboxamide], the GI50 in assay [1] (Homo sapiens, SW480, 120 h) came to 26.1 µM; in assay [2] (Homo sapiens, HCT-116, 120 h), 0.252 µM. The compound further had an IC50 in assay [3] (setting [6]) of 0.6 µM.
For `CC(F)(F)c1ncc(C(=O)N[C@H](/C=C/S(C)(=O)=O)COC2CC2)c(Oc2ccccc2)n1` [Example 97, (R,E)-N-(1-cyclopropoxy-4-(methylsulfonyl)but-3-en-2-yl)-2-(1,1-difluoroethyl)-4-phenoxypyrimidine-5-carboxamide], the GI50 worked out at 40 µM in assay [1] (Homo sapiens, SW480, 120 h) and 0.07 µM in assay [2] (Homo sapiens, HCT-116, 120 h). Moreover, the concentration for half-maximal inhibition (IC50) in assay [3] (setting [6]) came to 0.22 µM.
Turning to `CS(=O)(=O)/C=C/CNC(=O)c1cnc(C2CCCC2)nc1Oc1cccc(F)c1` [Example 111, (E)-2-cyclopentyl-4-(3-fluorophenoxy)-N-(3-(methylsulfonyl)allyl)pyrimidine-5-carboxamide], the concentration for 50% growth inhibition (GI50) was > 10 µM in assay [1] (Homo sapiens, SW480, 120 h) and 4.2 µM in assay [2] (Homo sapiens, HCT-116, 120 h). In addition, the 50% inhibitory concentration (IC50) in assay [3] (setting [6]) was found to be 3.8 µM.
As to `CS(=O)(=O)/C=C/CNC(=O)c1cnc(C2CCCC2)nc1Oc1ccc(Cl)cc1` [Example 120, (E)-4-(4-chlorophenoxy)-2-cyclopentyl-N-(3-(methylsulfonyl)allyl)pyrimidine-5-carboxamide], the 50% growth inhibitory concentration (GI50) is 4.8 µM in assay [1] (Homo sapiens, SW480, 120 h) and 4.3 µM in assay [2] (Homo sapiens, HCT-116, 120 h). In assay [3] (setting [6]), this compound registered an IC50 of 4.9 µM.
On to `[2H]c1c([2H])c([2H])c(Oc2nc(C3CC3)ncc2C(=O)N[C@@H](C)/C=C/S(C)(=O)=O)c([2H])c1[2H]` [Example 140], for which the 50% growth inhibitory concentration (GI50) in assay [1] (Homo sapiens, SW480, 120 h) is 32 µM; in assay [2] (Homo sapiens, HCT-116, 120 h) it was 0.33 µM. The IC50 in assay [3] (setting [6]) was determined as 1.9 µM.
For `C[C@@H](/C=C/S(C)(=O)=O)NC(=O)c1cnc(C2CC2)nc1OC12CCC(CC1)C2` [Example 143, (S,E)-4-(bicyclo[2.2.1]heptan-1-yloxy)-2-cyclopropyl-N-(4-(methylsulfonyl)but-3-en-2-yl)pyrimidine-5-carboxamide] the same measures were 13 µM, 3.4 µM and 14 µM.
Take `CC(F)(F)c1ncc(C(=O)N[C@H](/C=C/S(C)(=O)=O)C2CC2)c(O[C@@H]2C[C@@H]3C[C@@H]3C2)n1` [Example 158, 4-(((1R,3r,5S)-bicyclo[3.1.0]hexan-3-yl)oxy)-N—((S,E)-1-cyclopropyl-3-(methylsulfonyl)allyl)-2-(1,1-difluoroethyl)pyrimidine-5-carboxamide]: the concentration for 50% growth inhibition (GI50) is 40 µM in assay [1] (Homo sapiens, SW480, 120 h) and 0.36 µM in assay [2] (Homo sapiens, HCT-116, 120 h). This compound also gave a concentration for half-maximal inhibition (IC50) in assay [3] (setting [6]) of 1.5 µM.
In the case of `CC(C)(C)c1ncc(C(=O)NC/C=C/S(C)(=O)=O)c(O[C@H]2C[C@@H]3C[C@@H]3C2)n1` [Example 159, 4-(((1R,3s,5S)-bicyclo[3.1.0]hexan-3-yl)oxy)-2-(tert-butyl)-N—((E)-3-(methylsulfonyl)allyl)pyrimidine-5-carboxamide], the GI50 in assay [1] (SW480 (MSS), 5-day incubation) turned out to be 12 µM; in assay [2] (setting [4]), 2.5 µM. For the same compound, the concentration for half-maximal inhibition (IC50) in assay [3] (setting [5]) worked out at 6.9 µM.
For the compound `CN(C)c1ncc(C(=O)N[C@H](/C=C/S(C)(=O)=O)C2CC2)c(Oc2ccccc2)n1` [Example 177, (S,E)-N-(1-cyclopropyl-3-(methylsulfonyl)allyl)-2-(dimethylamino)-4-phenoxypyrimidine-5-carboxamide], the GI50 stood at 12 µM in assay [1] (Homo sapiens, SW480, 120 h) and 0.086 µM in assay [2] (Homo sapiens, HCT-116, 120 h). The same compound registered a concentration for half-maximal inhibition (IC50) in assay [3] (setting [6]) of 0.37 µM.
For `CNc1ncc(C(=O)N[C@H](/C=C/S(C)(=O)=O)C2CC2)c(Oc2ccccc2)n1` [Example 178, (S,E)-N-(1-cyclopropyl-3-(methylsulfonyl)allyl)-2-(methylamino)-4-phenoxypyrimidine-5-carboxamide] the same measures were 45 µM, 3.2 µM and 15 µM.
As to `CCN(CC)c1ncc(C(=O)N[C@H](/C=C/S(C)(=O)=O)C2CC2)c(Oc2ccccc2)n1` [Example 179, (S,E)-N-(1-cyclopropyl-3-(methylsulfonyl)allyl)-2-(diethylamino)-4-phenoxypyrimidine-5-carboxamide], the GI50 in assay [1] (Homo sapiens, SW480, 120 h) turned out to be 7 µM; in assay [2] (Homo sapiens, HCT-116, 120 h), 0.198 µM. In assay [3] (setting [6]), this compound gave an IC50 of 1.04 µM.
For `CN(c1ncc(C(=O)N[C@H](/C=C/S(C)(=O)=O)C2CC2)c(Oc2ccccc2)n1)C1CC1` [Example 180, (S,E)-2-(cyclopropyl(methyl)amino)-N-(1-cyclopropyl-3-(methylsulfonyl)allyl)-4-phenoxypyrimidine-5-carboxamide] the same measures were 3.4 µM, 0.0582 µM and 0.439 µM.
Turning to `[2H]c1c([2H])c([2H])c(Oc2nc(C(F)(F)C3CC3)ncc2C(=O)N[C@H](/C=C/S(C)(=O)=O)C2CC2)c([2H])c1[2H]` [Example 229, (S,E)-N-(1-cyclopropyl-3-(methylsulfonyl)allyl)-2-(cyclopropyldifluoromethyl)-4-(phenoxy-d5)pyrimidine-5-carboxamide], the 50% growth inhibitory concentration (GI50) amounted to 13 µM in assay [1] (Homo sapiens, SW480, 120 h) and 0.013 µM in assay [2] (Homo sapiens, HCT-116, 120 h). This compound gave an IC50 in assay [3] (setting [6]) of 0.058 µM.
With `CS(=O)(=O)/C=C/[C@@H](NC(=O)c1ccc(C(F)(F)C2CC2)nc1Oc1ccccc1)C1CC1` [Example 234, (S,E)-N-(1-cyclopropyl-3-(methylsulfonyl)allyl)-6-(cyclopropyldifluoromethyl)-2-phenoxynicotinamide], the concentration for 50% growth inhibition (GI50) in assay [1] (Homo sapiens, SW480, 120 h) was determined as 6.1 µM; in assay [2] (Homo sapiens, HCT-116, 120 h), 0.011 µM. Further, in assay [3] (setting [6]), the IC50 turned out to be 0.056 µM.
Regarding `CS(=O)(=O)/C=C/[C@@H](NC(=O)c1cc(F)c(C(F)(F)C2CC2)nc1Oc1ccccc1)C1CC1` [Example 236, (S,E)-N-(1-cyclopropyl-3-(methylsulfonyl)allyl)-6-(cyclopropyldifluoromethyl)-5-fluoro-2-phenoxynicotinamide], the GI50 in assay [1] (Homo sapiens, SW480, 120 h) was 4.5 µM; in assay [2] (Homo sapiens, HCT-116, 120 h), 0.012 µM. The compound also displayed an IC50 in assay [3] (setting [6]) of 0.042 µM.
With `CSc1ncc(C(=O)NC/C=C/S(C)(=O)=O)c(Oc2ccccc2)n1` [Example 241, (E)-N-(3-(methylsulfonyl)allyl)-2-(methylthio)-4-phenoxypyrimidine-5-carboxamide], the GI50 is > 10 µM in assay [1] (Homo sapiens, SW480, 120 h) and 8.4 µM in assay [2] (Homo sapiens, HCT-116, 120 h). In assay [3] (setting [6]), the IC50 is 12 µM.
For the compound `C=C(C#N)[C@H](C)NC(=O)c1cnc(C(C)(F)F)nc1Oc1ccccc1` [Example 273/274, (S)—N-(3-cyanobut-3-en-2-yl)-2-(1,1-difluoroethyl)-4-phenoxypyrimidine-5-carboxamide/(R)—N-(3-cyanobut-3-en-2-yl)-2-(1,1-difluoroethyl)-4-phenoxypyrimidine-5-carboxamide], the GI50 in assay [1] (SW480 (MSS), 5-day incubation) is 16 µM; in assay [2] (setting [4]), 0.122 µM.
